Results published in article PMC4664883, “Selective targeting of nuclear receptor FXR by avermectin analogues with therapeutic effects on nonalcoholic fatty liver disease” (Scientific Reports, 2015).

Columns and labels:
mice = system: mice; design: method as in PMID 19072826; details: cited from earlier work
KK-Ay mice = assay: High-fat diet fed KK-Ay mice treated 14 days (liver histology, metabolic parameters, GTT, ITT); format: in vivo; details: for insulin sensitivity (ITT) / glucose tolerance (GTT): KK-Ay mice treated 10 days; for insulin sensitivity (ITT): 1 U/kg insulin i.p.; for glucose tolerance (GTT): 1 g/kg glucose i.p.; for serum cholesterol level / serum triglyceride level / body weight / hepatic lipid / steatosis by H&E staining of liver sections / lipid accumulation by oil red O staining of liver sections / liver morphology (colour): KK-Ay mice; for serum cholesterol level / serum triglyceride level / body weight: 1.3 mg/kg i.p. 14 days; for body weight: versus vehicle, eprinomectin and moxidectin groups; for hepatic lipid / steatosis by H&E staining of liver sections / lipid accumulation by oil red O staining of liver sections / liver morphology (colour): high-fat diet, i.p. once daily 14 days, avermectin analogues 1.3 mg/kg, GW4064 30 mg/kg
Method: To further confirm the lipid accumulation, we performed oil red O staining of the frozen liver sections (Fig. 2c).
(§1) 10 weeks age KK-Ay mice and C57BL/6J, homozygous FXR deficient (FXR^–/–) mice were maintained under environmentally controlled conditions with free access to standard chow diet and water as described previously. Animal experiments were conducted in the barrier facility of the Laboratory Animal Center, Xiamen University, approved by the Institutional Animal Use and Care Committee of Xiamen University, China, and the methods were carried out in accordance with the approved guidelines. Mice were fed with high fat diet containing 60% fat, 20% protein and 20% carbohydrate (Research Diets, D12492, New Brunswick, USA), and the food intake were measured every second day. […] After 6 h fasting, mice were weighed and sacrificed. Livers were weighed and taken photos, and part of each liver was fixed in 4% paraformaldehyde. Liver histology characterization was analyzed by haematoxylin and eosin (H&E) staining with paraffin-embedded sections by standard procedures. Other tissues were collected and frozen in liquid nitrogen for use, and serums were collected to measure metabolite parameters.
(§2) Fresh liver tissues were embedded in optimum cutting temperature compound (OCT) and cryosectioned. The sections were fixed in 4% paraformaldehyde in PBS, and were stained with 0.3% oil red O according to standard procedures.
Mice treated with compounds for 10 days were fasted for 6 h with free access to water. For the glucose tolerance test (GTT), 1 g/kg of glucose was i.p. injected and blood glucose was measured with the Accu-Check Performa (Roche Applied Science, Mannheim, Germany) at 0, 30, 60, 90, 120,150 and 180 min. For the insulin tolerance test (ITT), 1 U/kg of recombinant human insulin (Novolin 30R; Novo Nordisk, Bagsvaerd, Denmark) was i.p. injected, and blood glucose was measured at 0, 30, 60, 120 and 150 min after insulin injection.
(§3) Serum glucose was analyzed using glucose oxidase method (Applygen, Beijing, China). Serum cholesterol and triglyceride were analyzed using Cholesterol Assay Kit and Triglyceride Assay Kit (Bioassay Systems, USA), respectively. Liver triglyceride was analyzed using Tissue triglyceride assay kit (Applygen, Beijing, China).

Wild type C57BL/6J mice = assay: High-fat diet fed wild type mice treated with compounds; format: in vivo; details: for serum cholesterol levels / serum glucose levels: in a FXR dependent manner (WT versus KO); for amount of lipid in liver sections (oil red O): wild type mice, high-fat diet, versus vehicle
From the text: To reaffirm that the function of avermectin analogues on lipid metabolism is by directly targeting FXR signaling, we employed wild type mice and FXR gene knockout mice, both fed with high-fat diet, to study the FXR dependency of physiological effects of these avermectin analogues. […] The expression pattern of FXR target genes SHP, BSEP, solute carrier family 51 beta subunit (OSTβ) and AKR1B7 in primary hepatocytes from wild type mice and FXR gene knockout mice further confirmed the FXR-dependent manner of avermectin analogues (Supplementary Fig. S5).
as §1, §2, §3

[1] = system: other nuclear receptors tested; assay: Receptor-specific transactivation reporter assay in COS-7 cells; format: cell-based, human; details: 10 μM avermectins, Supplementary Fig. S3
Method: 30 Receptor-specific ligand
rifampicin; CAR, 5 μM CITCO. […] Luciferase activities
independent experiments. *p<0.001 versus DMSO control.

FXR = target: T1, FXR (Homo sapiens, UniProt Q96RI1); assay: Cell-based reporter assay, transient transfection of COS-7 cells (EcRE reporter); details: for transcriptional activity of FXR: 1 μM compounds, Fig. 4b, EcRE reporter
T1 sequence (Q96RI1 1-472 isoform Q96RI1-2): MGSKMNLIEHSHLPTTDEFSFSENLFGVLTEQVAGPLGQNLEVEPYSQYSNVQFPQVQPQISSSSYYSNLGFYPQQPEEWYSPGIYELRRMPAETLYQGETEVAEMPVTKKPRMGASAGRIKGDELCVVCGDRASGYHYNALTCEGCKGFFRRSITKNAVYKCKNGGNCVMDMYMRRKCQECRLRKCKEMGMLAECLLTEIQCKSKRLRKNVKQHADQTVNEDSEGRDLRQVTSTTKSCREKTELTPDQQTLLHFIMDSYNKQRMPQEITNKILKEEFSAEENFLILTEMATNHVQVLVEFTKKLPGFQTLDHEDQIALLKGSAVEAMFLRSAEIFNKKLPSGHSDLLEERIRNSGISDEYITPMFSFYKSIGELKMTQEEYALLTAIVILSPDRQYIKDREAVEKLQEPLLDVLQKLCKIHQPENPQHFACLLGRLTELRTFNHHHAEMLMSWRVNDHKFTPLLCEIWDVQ
From the text: Since ligands can regulate the transcriptional activity of nuclear receptors by binding into their ligand binding pocket, we performed cell-based reporter assay to validate the results from AlphaScreen.
COS-7 cells were cotransfected with plasmids enco ding full-length nuclear receptors and their cognate response reporters as follows: human FXR with EcRE- Luc, human LXR(α and β) with LXRE- luc; human VDR with VDRE-luc; Human RXRα with RXRE- luc; human PPARs (α, δ, and γ) with PPRE-Luc; human GR o r PR with the MMTV-Luc; hum an RARα or RARβ with βRE- Luc; human PXR and CAR with PBRE-luc. 5 h after transfection,
were normalized to renilla activity co-transfected as an internal control.

FXR A291W mutation = assay: Reporter assay with mutated FXR; format: cell-based; details: 1 μM, Fig. 8e
FXR H447F mutation = assay: Reporter assay with mutated FXR; format: cell-based; details: 1 μM, Fig. 8e
From the text: For H447F mutation, the corresponding residue of histidine with a side chain of imidazole group was replaced by the nonpolar phenylalanine with a side chain of benzene ring (Fig. 8c).

[2] = target: T2, FXR ligand binding domain (LBD) (Homo sapiens, UniProt Q96RI1); assay: AlphaScreen cofactor binding assay; format: biochemical; details: for coactivators recruitment by FXR (biotin-SRC1–2, biotin-SRC2–3): 0.5 μM compound, Fig. 4a
T2 construct: made in house; host or cells: E. coli BL21 (DE3)
T2 sequence (Q96RI1 262-486 limits assumed): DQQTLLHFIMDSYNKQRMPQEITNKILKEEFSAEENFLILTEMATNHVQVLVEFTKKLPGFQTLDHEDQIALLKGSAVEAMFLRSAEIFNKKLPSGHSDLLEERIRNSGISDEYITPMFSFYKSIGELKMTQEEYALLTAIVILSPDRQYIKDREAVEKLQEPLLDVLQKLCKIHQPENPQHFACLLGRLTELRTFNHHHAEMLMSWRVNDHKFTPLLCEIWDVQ
Method: The binding of the cofactor peptide motifs to FXR LBD in response to ligands was determined by AlphaScreen assays using a hexahistidine detection kit from Perkins-Elmer (USA) as described before. The FXR LBD protein was purified as described previously.

FXR LBD = system: T3, FXR LBD; assay: Peptide profiling / peptide competition AlphaScreen assay; format: biochemical; details: 16 unlabelled peptides (20 μM) competing with biotin-SRC2-3; 1 μM compound
T3 construct: made in house; host or cells: E. coli BL21 (DE3)
From the text: To determine whether there is a conformational difference of FXR with various avermectin analogues, we performed peptide-profiling experiments using a panel of 16 unlabelled peptides selected from both coactivators and corepressors to compete off the binding of the third LXXLL motif of SRC2 (SRC2–3) to FXR in response to the binding of avermectin analogues (Fig. 5).
Values are the means ± SEM of three independent experiments.

[3] = system: genes related with lipid metabolism / FXR target genes; assay: Real-time PCR of hepatic mRNA levels in treated KK-Ay mice; format: in vivo; details: KK-Ay mice liver
Method: as §1
Total RNA was isolated using Tissue RNA kit (Omega Bio-Tek, GA). The first strand cDNA were obtained by TAKARA reverse transcription kit. Real-time quantitative PCR were performed on a CFX96™ Real-Time PCR Detection System (Bio-Rad) using SYBR Premix Ex TaqTM (TAKARA). Relative mRNA expression levels were normalized to actin levels.

diabetic mice = details: cited from earlier work

transcriptional activity of FXR (FXR)	coactivators recruitment by FXR (biotin-SRC1–2, biotin-SRC2–3) [2]	hepatic level of CYP8b1 [3]	Structure (SMILES)	insulin sensitivity (ITT) (KK-Ay mice)	glucose tolerance (GTT) (KK-Ay mice)	serum cholesterol level (KK-Ay mice)	serum triglyceride level (KK-Ay mice)	body weight (KK-Ay mice)	hepatic lipid / steatosis by H&E staining of liver sections (KK-Ay mice)	lipid accumulation by oil red O staining of liver sections (KK-Ay mice)	liver morphology (colour) (KK-Ay mice)	serum cholesterol levels (Wild type C57BL/6J mice)	serum glucose levels (Wild type C57BL/6J mice)	amount of lipid in liver sections (oil red O) (Wild type C57BL/6J mice)	impact on other nuclear receptors tested (transactivation) [1]	hepatic expression of BSEP [3]	hepatic expression of SHP [3]	hepatic mRNA level of AKR1B7 [3]	hepatic mRNA level of SCD1 [3]	hepatic mRNA level of SREBP-1c [3]	other results
–	–	–	C[C@H](CCC(=O)O)[C@H]1CC[C@H]2[C@@H]3[C@H](O)C[C@@H]4C[C@H](O)CC[C@]4(C)[C@H]3CC[C@]12C [CDCA, chenodeoxycholic acid]	–	–	–	–	–	–	–	–	–	–	–	–	–	–	–	–	–	liver effect of CDCA-rich diet (mice): induce liver hypertrophy
–	–	–	CCC(C)C1OC2(C=CC1C)CC1CC(CC=C(C)C(OC3CC(OC)C(OC4CC(OC)C(O)C(C)O4)C(C)O3)C(C)C=CC=C3COC4C(O)C(C)=CC(C(=O)O1)C34O)O2 (stereo not drawn) [abamectin]	significantly improved	significantly improved	significantly decreased	significantly decreased	significantly lower	nearly completely reverse the liver from hepatic steatosis	dramatically reduced the lipid accumulation	much more fresh red tissue	lowered	lowered	significantly reduced the amount of lipid	no substantial impact	–	–	–	–	–	–
selectively activated	strongly promoted	decreased	CO[C@H]1C[C@H](O[C@H]2[C@H](C)O[C@@H](O[C@@H]3/C(C)=C/C[C@@H]4C[C@@H](C[C@]5(C=C[C@H](C)[C@@H](C6CCCCC6)O5)O4)OC(=O)[C@@H]4C=C(C)[C@@H](O)[C@H]5OC/C(=C\C=C\[C@@H]3C)[C@]54O)C[C@@H]2OC)O[C@@H](C)[C@@H]1O [doramectin]	significantly improved	significantly improved	significantly decreased	significantly decreased	significantly lower	nearly completely reverse the liver from hepatic steatosis	dramatically reduced the lipid accumulation	much more fresh red tissue	lowered	lowered	significantly reduced the amount of lipid	no substantial impact	induced	induced	dramatically induced	substantially decreased	substantially decreased	ligand character for FXR (FXR; concluded from AlphaScreen and reporter assays): partial agonists; transcriptional activity of A291W mutated FXR (FXR A291W mutation): abolished the transcriptional activity; transcriptional activity of H447F mutated FXR (FXR H447F mutation): increased the FXR activity; recruitment of nuclear receptor corepressor (NCoR)-2 by FXR ([2]; Fig. 4e): induced the recruitment; peptide profile of ligand-bound FXR (FXR LBD): identical peptide profiles as the ivermectin
failed to activate	failed to induce	did not display these regulations	CO/N=C1\C[C@]2(C[C@@H]3C[C@@H](C/C=C(\C)C[C@@H](C)/C=C/C=C4\CO[C@@H]5[C@H](O)C(C)=C[C@@H](C(=O)O3)[C@]45O)O2)O[C@H](/C(C)=C/C(C)C)[C@H]1C [moxidectin]	–	–	did not	did not	–	–	–	grease white	–	–	–	–	did not display these regulations	did not display these regulations	did not display these regulations	did not display these regulations	did not display these regulations	–

Structure (SMILES)	transcriptional activity of FXR (FXR)	coactivators recruitment by FXR (biotin-SRC1–2, biotin-SRC2–3) [2]	hepatic level of CYP8b1 [3]	insulin sensitivity (ITT) (KK-Ay mice)	glucose tolerance (GTT) (KK-Ay mice)	serum cholesterol level (KK-Ay mice)	serum triglyceride level (KK-Ay mice)	body weight (KK-Ay mice)	hepatic lipid / steatosis by H&E staining of liver sections (KK-Ay mice)	lipid accumulation by oil red O staining of liver sections (KK-Ay mice)	liver morphology (colour) (KK-Ay mice)	serum cholesterol levels (Wild type C57BL/6J mice)	serum glucose levels (Wild type C57BL/6J mice)	amount of lipid in liver sections (oil red O) (Wild type C57BL/6J mice)	impact on other nuclear receptors tested (transactivation) [1]	hepatic expression of BSEP [3]	hepatic expression of SHP [3]	hepatic mRNA level of AKR1B7 [3]	hepatic mRNA level of SCD1 [3]	hepatic mRNA level of SREBP-1c [3]	other results
CCC(C)C1OC2(CCC1C)CC1CC(CC=C(C)C(OC3CC(OC)C(OC4CC(OC)C(O)C(C)O4)C(C)O3)C(C)C=CC=C3COC4C(O)C(C)=CC(C(=O)O1)C34O)O2 (stereo not drawn) [ivermectin]	–	strongly promoted	decreased	–	–	significantly decreased	significantly decreased	significantly lower	nearly completely reverse the liver from hepatic steatosis	dramatically reduced the lipid accumulation	much more fresh red tissue	–	–	significantly reduced the amount of lipid	–	induced	induced	dramatically induced	substantially decreased	substantially decreased	transcriptional activity of A291W mutated FXR (FXR A291W mutation): abolished the transcriptional activity; serum cholesterol level (diabetic mice): decreased; serum glucose level (diabetic mice): decreased
